Measurements: article PMC6354820 (Endocrinology, Diabetes & Metabolism, 2018)

Columns and labels:
[1] = target: Kir6.2 (pore subunit of the pancreatic beta-cell KATP channel) (Mus musculus, UniProt Q61743); assay: inside-out patch-clamp, single-channel NPo concentration-effect; type: cell-based
[2] = target: SUR1 (sulphonylurea receptor subunit of the pancreatic beta-cell KATP channel) (Mus musculus, UniProt B2RUS7); assay: standard whole-cell patch-clamp, block by a single concentration; type: cell-based; conditions: read-out: % inhibition at 20 μmol/L
SUR1 (sulphonylurea receptor subunit of the pancreatic beta-cell KATP channel), sequence (B2RUS7 1-1588): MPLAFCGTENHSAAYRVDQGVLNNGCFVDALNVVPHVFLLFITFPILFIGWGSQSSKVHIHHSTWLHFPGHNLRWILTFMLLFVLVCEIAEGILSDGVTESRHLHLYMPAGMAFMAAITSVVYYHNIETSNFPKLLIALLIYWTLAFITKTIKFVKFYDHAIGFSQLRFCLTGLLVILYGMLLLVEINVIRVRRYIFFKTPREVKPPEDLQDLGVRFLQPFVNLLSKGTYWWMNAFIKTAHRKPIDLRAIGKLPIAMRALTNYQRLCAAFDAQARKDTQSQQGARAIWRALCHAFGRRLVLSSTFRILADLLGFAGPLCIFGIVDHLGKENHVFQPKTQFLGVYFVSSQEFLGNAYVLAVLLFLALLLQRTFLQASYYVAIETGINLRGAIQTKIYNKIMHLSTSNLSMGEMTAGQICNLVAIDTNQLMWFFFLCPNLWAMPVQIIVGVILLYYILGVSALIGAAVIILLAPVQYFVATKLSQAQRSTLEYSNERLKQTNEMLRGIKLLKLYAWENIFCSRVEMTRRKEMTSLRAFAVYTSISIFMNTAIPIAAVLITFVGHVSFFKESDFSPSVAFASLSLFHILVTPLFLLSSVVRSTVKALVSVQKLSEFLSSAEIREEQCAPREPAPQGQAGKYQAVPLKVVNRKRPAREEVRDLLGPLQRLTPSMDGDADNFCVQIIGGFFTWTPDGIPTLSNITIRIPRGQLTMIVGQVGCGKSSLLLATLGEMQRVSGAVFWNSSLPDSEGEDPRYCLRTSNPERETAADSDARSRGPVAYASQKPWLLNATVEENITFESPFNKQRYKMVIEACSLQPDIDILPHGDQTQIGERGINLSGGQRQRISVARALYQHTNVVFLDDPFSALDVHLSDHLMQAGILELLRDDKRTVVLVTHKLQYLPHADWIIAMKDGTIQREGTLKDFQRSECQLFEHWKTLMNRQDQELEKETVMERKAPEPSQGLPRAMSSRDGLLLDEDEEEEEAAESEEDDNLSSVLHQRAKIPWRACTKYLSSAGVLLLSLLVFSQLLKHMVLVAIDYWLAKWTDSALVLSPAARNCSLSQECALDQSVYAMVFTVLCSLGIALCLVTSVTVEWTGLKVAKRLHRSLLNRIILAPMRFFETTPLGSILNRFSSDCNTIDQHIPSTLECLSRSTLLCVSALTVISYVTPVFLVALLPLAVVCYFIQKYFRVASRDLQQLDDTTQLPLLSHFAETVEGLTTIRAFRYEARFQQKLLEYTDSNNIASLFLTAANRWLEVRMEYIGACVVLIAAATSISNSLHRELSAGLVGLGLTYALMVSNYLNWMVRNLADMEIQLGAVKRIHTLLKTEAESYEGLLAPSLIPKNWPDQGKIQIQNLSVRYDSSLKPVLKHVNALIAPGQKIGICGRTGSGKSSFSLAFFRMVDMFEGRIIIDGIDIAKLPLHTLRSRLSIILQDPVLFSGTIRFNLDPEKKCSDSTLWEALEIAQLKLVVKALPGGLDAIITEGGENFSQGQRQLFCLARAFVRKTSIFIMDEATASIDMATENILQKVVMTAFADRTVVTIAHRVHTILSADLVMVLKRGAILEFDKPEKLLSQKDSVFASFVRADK
SUR1 (sulphonylurea receptor subunit of the pancreatic beta-cell KATP channel), sequence (Q61743 whole entry partner): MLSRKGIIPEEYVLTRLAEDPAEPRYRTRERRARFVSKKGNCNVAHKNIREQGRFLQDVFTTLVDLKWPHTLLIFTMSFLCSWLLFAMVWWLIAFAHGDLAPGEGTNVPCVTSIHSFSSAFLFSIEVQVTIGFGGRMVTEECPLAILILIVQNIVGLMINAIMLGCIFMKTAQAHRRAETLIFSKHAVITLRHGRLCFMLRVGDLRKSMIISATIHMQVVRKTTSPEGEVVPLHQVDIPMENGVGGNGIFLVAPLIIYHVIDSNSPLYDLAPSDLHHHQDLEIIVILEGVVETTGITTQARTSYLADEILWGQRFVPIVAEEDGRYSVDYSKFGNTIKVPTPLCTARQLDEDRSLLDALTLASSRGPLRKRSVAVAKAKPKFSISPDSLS

Kir6.2 (pore subunit of the pancreatic beta-cell KATP channel), sequence (Q61743 whole entry): as the sequence (Q61743 whole entry partner) above
Kir6.2 (pore subunit of the pancreatic beta-cell KATP channel), sequence (B2RUS7 1-1588 partner): as the sequence (B2RUS7 1-1588) above

SMILES | IC50 [1] | inhibition at 20 µM [2]
CCC(C)(C)C(=O)O[C@H]1C[C@@H](C)C=C2C=C[C@H](C)[C@H](CC[C@@H]3C[C@@H](O)CC(=O)O3)[C@H]21 [Sim, simvastatin] | 26 nM | 
CCCCNC(=O)NS(=O)(=O)c1ccc(C)cc1 [Tb, tolbutamide] |  | 43 ± 3.3%
